Reference: the CheMixHub viscosity set
“And” between values parts separate entries of the source, which are not always exact repeats. Identical values can stand only once. ± gives the uncertainty stated by the source.

Assay: xn = mol fraction of the nth substance listed

C[N+](C)(C)CCO.[Cl-] + OCC(O)CO
Details | viscosity
293.15 K, 100 kPa, x1 = 0.3 | 519 ± 41 mPa·s
293.15 K, 100 kPa, x1 = 0.333 | 561.4 ± 28 mPa·s
293.15 K, 101.3 kPa, x2 = 0.7 | 516.1 ± 52 mPa·s
293.42 K, 101.33 kPa, x2 = 0.8 | 167.1 ± 49 mPa·s
293.43 K, 101.33 kPa, x2 = 0.7 | 267.9 ± 72 mPa·s
294.19 K, 101.33 kPa, x2 = 0.7 | 254.1 ± 64 mPa·s
294.4 K, 101.33 kPa, x2 = 0.8 | 156.8 ± 36 mPa·s
295.2 K, 101.33 kPa, x2 = 0.8 | 148.2 ± 43 mPa·s
295.27 K, 101.33 kPa, x2 = 0.7 | 236.6 ± 62 mPa·s
296.05 K, 101.33 kPa, x2 = 0.8 | 138.9 ± 40 mPa·s
296.09 K, 101.33 kPa, x2 = 0.7 | 222.7 ± 57 mPa·s
296.85 K, 101.33 kPa, x2 = 0.7 | 209.9 ± 53 mPa·s
296.95 K, 101.33 kPa, x2 = 0.8 | 130 ± 37 mPa·s
297.09 K, 101 kPa, x1 = 0.333 | 348.4 ± 12 mPa·s
297.68 K, 101.33 kPa, x2 = 0.8 | 123.2 ± 35 mPa·s
297.78 K, 101.33 kPa, x2 = 0.7 | 195.3 ± 49 mPa·s
298.15 K, 100 kPa, x1 = 0.3 | 368 ± 25 mPa·s
298.15 K, 100 kPa, x1 = 0.33 | 348 ± 23 mPa·s
298.15 K, 100 kPa, x1 = 0.333 | 259 ± 9 mPa·s and 386.3 ± 18 mPa·s
298.15 K, 101 kPa, x1 = 0.167 | 304 ± 32 mPa·s
298.15 K, 101 kPa, x1 = 0.2 | 353.5 ± 30 mPa·s and 244 ± 26 mPa·s
298.15 K, 101 kPa, x1 = 0.25 | 338.7 ± 29 mPa·s and 261 ± 28 mPa·s
298.15 K, 101 kPa, x1 = 0.33 | 318.1 ± 26 mPa·s
298.15 K, 101 kPa, x1 = 0.333 | 200 ± 21 mPa·s and 283.2 ± 13 mPa·s
298.15 K, 101.33 kPa, x2 = 0.7 | 301 ± 34 mPa·s
298.73 K, 101.33 kPa, x2 = 0.7 | 184.5 ± 46 mPa·s
298.74 K, 101.33 kPa, x2 = 0.8 | 115.2 ± 33 mPa·s
299.46 K, 101.33 kPa, x2 = 0.7 | 174.9 ± 43 mPa·s
299.66 K, 101.33 kPa, x2 = 0.8 | 108.3 ± 30 mPa·s
300.32 K, 101.33 kPa, x2 = 0.7 | 163 ± 40 mPa·s
300.43 K, 101.33 kPa, x2 = 0.8 | 101.9 ± 28 mPa·s
301.05 K, 101.33 kPa, x2 = 0.8 | 96.5 ± 26 mPa·s
301.22 K, 101.33 kPa, x2 = 0.7 | 152.2 ± 37 mPa·s
301.89 K, 101 kPa, x1 = 0.333 | 263.5 ± 8.4 mPa·s
302.07 K, 101.33 kPa, x2 = 0.7 | 144.8 ± 34 mPa·s
302.09 K, 101.33 kPa, x2 = 0.8 | 90.62 ± 25 mPa·s
303 K, 101 kPa, x1 = 0.3333 | 428.4 ± 32 mPa·s
303.03 K, 101.33 kPa, x2 = 0.7 | 137 ± 32 mPa·s
303.04 K, 101.33 kPa, x2 = 0.8 | 85.38 ± 24 mPa·s
303.15 K, 100 kPa, x1 = 0.33 | 255.6 ± 14 mPa·s
303.15 K, 100 kPa, x1 = 0.333 | 290.9 ± 13 mPa·s
303.15 K, 101 kPa, x1 = 0.2 | 259.6 ± 19 mPa·s
303.15 K, 101 kPa, x1 = 0.25 | 250.4 ± 18 mPa·s
303.15 K, 101 kPa, x1 = 0.33 | 239 ± 17 mPa·s
303.97 K, 101.33 kPa, x2 = 0.7 | 128 ± 30 mPa·s
303.97 K, 101.33 kPa, x2 = 0.8 | 81.55 ± 22 mPa·s
304.77 K, 101.33 kPa, x2 = 0.7 | 121.8 ± 28 mPa·s
304.87 K, 101.33 kPa, x2 = 0.8 | 76.53 ± 21 mPa·s
305.64 K, 101.33 kPa, x2 = 0.7 | 114.5 ± 26 mPa·s
305.7 K, 101.33 kPa, x2 = 0.8 | 72.8 ± 19 mPa·s
306.52 K, 101.33 kPa, x2 = 0.7 | 109 ± 25 mPa·s
306.58 K, 101.33 kPa, x2 = 0.8 | 69.11 ± 19 mPa·s
307.07 K, 101 kPa, x1 = 0.333 | 187 ± 5 mPa·s
307.4 K, 101.33 kPa, x2 = 0.7 | 103.9 ± 24 mPa·s
307.47 K, 101.33 kPa, x2 = 0.8 | 65.09 ± 18 mPa·s
308 K, 101 kPa, x1 = 0.3333 | 312 ± 13 mPa·s
308.15 K, 100 kPa, x1 = 0.3 | 198 ± 9 mPa·s
308.15 K, 100 kPa, x1 = 0.33 | 190.3 ± 8.6 mPa·s
308.15 K, 100 kPa, x1 = 0.333 | 216.8 ± 9.6 mPa·s
308.15 K, 101 kPa, x1 = 0.2 | 192.5 ± 12 mPa·s
308.15 K, 101 kPa, x1 = 0.25 | 187 ± 11 mPa·s
308.15 K, 101 kPa, x1 = 0.33 | 181.2 ± 10 mPa·s
308.15 K, 101.3 kPa, x2 = 0.7 | 194.5 ± 12 mPa·s
308.15 K, 101.33 kPa, x2 = 0.7 | 96.86 ± 22 mPa·s
308.34 K, 101.33 kPa, x2 = 0.8 | 61.7 ± 16 mPa·s
309.15 K, 101.33 kPa, x2 = 0.8 | 58.96 ± 16 mPa·s
309.17 K, 101.33 kPa, x2 = 0.7 | 92 ± 20 mPa·s
309.94 K, 101.33 kPa, x2 = 0.7 | 88.35 ± 20 mPa·s
310 K, 101.33 kPa, x2 = 0.8 | 56.2 ± 15 mPa·s
310.82 K, 101.33 kPa, x2 = 0.8 | 53.22 ± 14 mPa·s
310.85 K, 101.33 kPa, x2 = 0.7 | 82.38 ± 18 mPa·s
311.67 K, 101.33 kPa, x2 = 0.8 | 50.6 ± 13 mPa·s
311.74 K, 101.33 kPa, x2 = 0.7 | 79.15 ± 17 mPa·s
312.13 K, 101 kPa, x1 = 0.333 | 144.5 ± 3.1 mPa·s
312.62 K, 101.33 kPa, x2 = 0.7 | 74.77 ± 16 mPa·s
312.66 K, 101.33 kPa, x2 = 0.8 | 47.68 ± 13 mPa·s
313 K, 101 kPa, x1 = 0.3333 | 222.4 ± 8.5 mPa·s
313.15 K, 100 kPa, x1 = 0.3 | 148 ± 6 mPa·s
313.15 K, 100 kPa, x1 = 0.33 | 145.1 ± 5.3 mPa·s
313.15 K, 100 kPa, x1 = 0.333 | 165.7 ± 13 mPa·s and 161.3 ± 7 mPa·s
313.15 K, 101 kPa, x1 = 0.167 | 119 ± 12 mPa·s
313.15 K, 101 kPa, x1 = 0.2 | 144.2 ± 6.9 mPa·s and 90 ± 9 mPa·s
313.15 K, 101 kPa, x1 = 0.25 | 140.9 ± 6.6 mPa·s and 93 ± 9 mPa·s
313.15 K, 101 kPa, x1 = 0.33 | 138.6 ± 6.5 mPa·s
313.15 K, 101 kPa, x1 = 0.333 | 85 ± 9 mPa·s
313.4 K, 101.33 kPa, x2 = 0.7 | 70.27 ± 14 mPa·s
313.68 K, 101.33 kPa, x2 = 0.8 | 45.67 ± 9.3 mPa·s
314.3 K, 101.33 kPa, x2 = 0.7 | 67.45 ± 15 mPa·s
314.49 K, 101.33 kPa, x2 = 0.8 | 43.42 ± 11 mPa·s
315.23 K, 101.33 kPa, x2 = 0.8 | 41.47 ± 11 mPa·s
315.26 K, 101.33 kPa, x2 = 0.7 | 64.39 ± 14 mPa·s
315.79 K, 101.33 kPa, x2 = 0.8 | 40.01 ± 8.1 mPa·s
316.19 K, 101.33 kPa, x2 = 0.7 | 60.28 ± 12 mPa·s
316.96 K, 101.33 kPa, x2 = 0.8 | 38.19 ± 7.8 mPa·s
317.25 K, 101.33 kPa, x2 = 0.7 | 57.92 ± 12 mPa·s
317.43 K, 101 kPa, x1 = 0.333 | 110.5 ± 1.9 mPa·s
317.78 K, 101.33 kPa, x2 = 0.8 | 35.41 ± 9.3 mPa·s
317.92 K, 101.33 kPa, x2 = 0.7 | 55.4 ± 12 mPa·s
318 K, 101 kPa, x1 = 0.3333 | 159.6 ± 5.3 mPa·s
318.15 K, 100 kPa, x1 = 0.3 | 116 ± 4 mPa·s
318.15 K, 100 kPa, x1 = 0.333 | 125.2 ± 5.3 mPa·s
318.15 K, 101 kPa, x1 = 0.2 | 109 ± 4 mPa·s
318.15 K, 101 kPa, x1 = 0.25 | 107.2 ± 3.8 mPa·s
318.15 K, 101 kPa, x1 = 0.33 | 106.9 ± 3.8 mPa·s
318.15 K, 101 kPa, x1 = 0.333 | 91 ± 3.9 mPa·s
318.15 K, 101.3 kPa, x2 = 0.7 | 114.4 ± 4.2 mPa·s
318.42 K, 101.33 kPa, x2 = 0.8 | 35.11 ± 9.2 mPa·s
318.59 K, 101.33 kPa, x2 = 0.7 | 53.65 ± 12 mPa·s
319.37 K, 101.33 kPa, x2 = 0.8 | 33.09 ± 8.8 mPa·s
319.53 K, 101.33 kPa, x2 = 0.7 | 51.45 ± 11 mPa·s
320.2 K, 101.33 kPa, x2 = 0.8 | 31.05 ± 6.3 mPa·s
320.45 K, 101.33 kPa, x2 = 0.7 | 48.65 ± 9.9 mPa·s
321.14 K, 101.33 kPa, x2 = 0.8 | 29.69 ± 6 mPa·s
321.38 K, 101.33 kPa, x2 = 0.7 | 46.23 ± 9.4 mPa·s
322.2 K, 101.33 kPa, x2 = 0.7 | 44.48 ± 9 mPa·s
322.23 K, 101 kPa, x1 = 0.333 | 93.48 ± 1.4 mPa·s
323 K, 101 kPa, x1 = 0.3333 | 123.5 ± 3.7 mPa·s
323.02 K, 101.33 kPa, x2 = 0.7 | 42.72 ± 8.7 mPa·s
323.15 K, 100 kPa, x1 = 0.3 | 89.7 ± 2.5 mPa·s
323.15 K, 100 kPa, x1 = 0.33 | 88.7 ± 1.8 mPa·s
323.15 K, 100 kPa, x1 = 0.333 | 98.89 ± 4.1 mPa·s
323.15 K, 101 kPa, x1 = 0.2 | 83.04 ± 2.1 mPa·s
323.15 K, 101 kPa, x1 = 0.25 | 82.18 ± 2.1 mPa·s
323.15 K, 101 kPa, x1 = 0.33 | 83.12 ± 2.1 mPa·s
323.15 K, 101.3 kPa, x2 = 0.7 | 88.65 ± 2.3 mPa·s
